Literature values as cited in patent US6525037B1, “Method of treating atherosclerosis and complications resulting therefrom” (BioNumerik Pharmaceuticals, Inc., priority 2000, dated 2003).

Details: accepted value

In the case of [Cl-].[Na+] [common table salt], the “oral LD50” value is listed as 3750 mg/kg.
